Results taken from patent US7560468B2, “Substituted 1,4,8-triazaspiro[4,5]decan-2-one compounds” (Gruenenthal GmbH, priority 2004, dated 2009).

What was measured:
[1] = system: batrachotoxin (BTX) binding site of the sodium channel; experiment: Affinity to the batrachotoxin (BTX) binding site of the sodium channel; details: rat cerebrocortex synaptosomes, [3H]-batrachotoxinin A20 α-benzoate 10 nM; test concentration not given
NA transporter = experiment: Inhibition of noradrenalin uptake in synaptosomes; format: biochemical

| SMILES | BTX Inhibition [1] | Uptake (NA), rat, 10 μM, % inhibition (NA transporter) [%] |
| --- | --- | --- |
| CSCCC1NC2(CCN(C(=S)NCC3CCCO3)CC2)N(Cc2ccc(F)cc2)C1=O (stereo not shown) [Example 168, 1-(4-Fluorobenzyl)-3-(2-methylsulfanylethyl)-2-oxo-1,4,8-triazaspiro[4,5]decan-8-thiocarboxylic acid (tetrahydrofuran-2-ylmethyl)amide] | 38 | 35 |
| CSCCC1NC2(CCN(C(=S)NCc3ccc(Cl)cc3)CC2)N(Cc2ccccc2C#N)C1=O (stereo not shown) [Example 193, 1-(2-Cyanobenzyl)-3-(2-methylsulfanylethyl)-2-oxo-1,4,8-triazaspiro[4,5]decan-8-thiocarboxylic acid 4-chlorobenzylamide] | 72 | 32 |
| CN1C(=O)C(Cc2ccccc2)NC12CCN(C(=S)NCc1ccc(Cl)cc1)CC2 (stereo not shown) [Example 175, 3-Benzyl-1-methyl-2-oxo-1,4,8-triazaspiro[4,5]decan-8-thiocarboxylic acid 4-chlorobenzylamide] | 63 | 32 |
| CSCCC1NC2(CCN(C(=S)Nc3cccc(C)c3)CC2)N(Cc2ccccc2C#N)C1=O (stereo not shown) [Example 161, 1-(2-Cyanobenzyl)-3-(2-methylsulfanylethyl)-2-oxo-1,4,8-triazaspiro[4,5]decan-8-thiocarboxylic acid m-tolylamide] | 53 | 33 |
| CSCCC1NC2(CCN(C(=O)Nc3ccc(OC(F)(F)F)cc3)CC2)N(C)C1=O (stereo not shown) [Example 222, 1-Methyl-3-(2-methylsulfanylethyl)-2-oxo-1,4,8-triazaspiro[4,5]decan-8-carboxylic acid (4-trifluoromethoxy-benzol)amide] | 48 | 30 |
| COc1ccccc1NC(=S)N1CCC2(CC1)NC(CCSC)C(=O)N2Cc1ccccc1C#N (stereo not shown) [Example 183, 1-(2-Cyanobenzyl)-3-(2-methylsulfanylethyl)-2-oxo-1,4,8-triazaspiro[4,5]decan-8-thiocarboxylic acid (2-methoxy-benzol)amide] | 37 | 29 |
| CC(C)CC1NC2(CCN(C(=S)NCc3ccccc3)CC2)N(Cc2ccccc2C#N)C1=O (stereo not shown) [Example 170, 1-(2-Cyanobenzyl)-3-isobutyl-2-oxo-1,4,8-triazaspiro[4,5]decan-8-thiocarboxylic acid benzylamide] | 53 | 46 |
| C#CCN1C(=O)C(CC(C)C)NC12CCN(C(=S)Nc1cc(Cl)cc(Cl)c1)CC2 (stereo not shown) [Example 195, 3-Isobutyl-2-oxo-1-prop-2-ynyl-1,4,8-triazaspiro[4,5]decan-8-thiocarboxylic acid (3,5-dichlorobenzol)amide] | 77 | 30 |
| COc1ccccc1NC(=S)N1CCC2(CC1)NC(C(C)C)C(=O)N2Cc1ccccc1 (stereo not shown) [Example 155, 1-Benzyl-3-isopropyl-2-oxo-1,4,8-triazaspiro[4,5]decan-8-thiocarboxylic acid (2-methoxy-benzol)amide] | 32 | 52 |
| CC(C)CC1NC2(CCN(C(=O)NCc3ccc(Cl)c(Cl)c3)CC2)N(Cc2ccccc2C#N)C1=O (stereo not shown) [Example 217, 1-(2-Cyanobenzyl)-3-isobutyl-2-oxo-1,4,8-triazaspiro[4,5]decan-8-carboxylic acid 3,4-dichlorobenzylamide] | 78 | 39 |
| COC(=O)c1ccc(CN2C(=O)C(C(C)C)NC23CCN(C(=S)NCC2CCCO2)CC3)cc1 (stereo not shown) [Example 137, Methyl 4-{3-isopropyl-2-oxo-8-[(tetrahydrofuran-2-ylmethyl)thiocarbamoyl]-1,4,8-triazaspiro[4,5]dec-1-ylmethyl}-benzoate] | 37 | 30 |
